Test results reported in patent US11685746B2, “Heteroaryl compounds for treating Huntington's disease” (PTC THERAPEUTICS, INC., priority 2018, dated 2023).

Test system: Endogenous Huntingtin Protein
Assay: Endogenous Huntingtin Protein Assay (MSD plates, MW1 or MAB2166 capture antibody)
Assay type: cell-based
Conditions: Table 1
Summary of the method: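 Endogenous huntingtin was captured overnight at 4° C on wells coated with 1 μg/mL MW1 (polyglutamine-specific) or MAB2166. Detection used rabbit #5656S and then goat anti-rabbit SULFO-TAG, both at 0.25 μg/mL and 1 h at room temperature. Plates were imaged on the MSD system in read buffer T.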

Row | Structure (SMILES) | IC50
1 | CN(c1nc2sc(-c3ncc(-c4cn[nH]c4)cc3O)nc2s1)[C@H]1CCNC1 [Compound 213, 2-(5-{methyl[(3S)-pyrrolidin-3-yl]amino}[1,3]thiazolo[5,4-d][1,3]thiazol-2-yl)-5-(1H-pyrazol-4-yl)pyridin-3-ol] | ≤ 100 nM
2 | [2H]C([2H])([2H])n1cc(-c2cnc(-c3nc4sc(N(C)C5CCNCC5)nc4s3)c(O)c2)cn1 [Compound 51, 2-{5-[methyl(piperidin-4-yl)amino][1,3]thiazolo[5,4-d][1,3]thiazol-2-yl}-5-[1-(^2H3)methyl-1H-pyrazol-4-yl]pyridin-3-ol] | ≤ 100 nM
3 | CCCN1[C@@H]2CC[C@H]1C[C@H](N(C)c1nc3sc(-n4ccc(-c5cn[nH]c5)cc4=O)nc3s1)C2 [Compound 165, 1-(5-{methyl[(1R,3s,5S)-8-propyl-8-azabicyclo[3.2.1]octan-3-yl]amino}[1,3]thiazolo[5,4-d][1,3]thiazol-2-yl)-4-(1H-pyrazol-4-yl)pyridin-2(1H)-one] | ≤ 100 nM
4 | COc1cc(-c2cnc(-c3nc4sc(N(C)[C@H]5C[C@]6(C)CC[C@](C)(C5)N6)nc4s3)cn2)ccn1 [Compound 69, N-[(1R,3s,5S)-1,5-dimethyl-8-azabicyclo[3.2.1]octan-3-yl]-5-[5-(2-methoxypyridin-4-yl)pyrazin-2-yl]-N-methyl[1,3]thiazolo[5,4-d][1,3]thiazol-2-amine] | 100 to 500 nM
5 | CN(c1nc2sc(-c3ccc(-c4cn[nH]c4)nc3)nc2s1)[C@@H]1C[C@H]2CC[C@@H](C1)N2 [Compound 173, N-[(1R,3s,5S)-8-azabicyclo[3.2.1]octan-3-yl]-N-methyl-5-[6-(1H-pyrazol-4-yl)pyridin-3-yl][1,3]thiazolo[5,4-d][1,3]thiazol-2-amine] | ≤ 100 nM
6 | [2H]C([2H])([2H])n1cc(-c2ccc(-c3nc4sc(N(C)C5CCNCC5)nc4s3)c(O)c2)cn1 [Compound 39, 2-{5-[methyl(piperidin-4-yl)amino][1,3]thiazolo[5,4-d][1,3]thiazol-2-yl}-5-[1-(^2H3)methyl-1H-pyrazol-4-yl]phenol] | ≤ 100 nM
7 | C[C@H]1C[C@@H](Oc2nc3sc(-c4ncc(-c5cn[nH]c5)c5cc[nH]c45)nc3s2)CCN1 [Compound 120, 7-(5-{[(2S,4S)-2-methylpiperidin-4-yl]oxy}[1,3]thiazolo[5,4-d][1,3]thiazol-2-yl)-4-(1H-pyrazol-4-yl)-1H-pyrrolo[2,3-c]pyridine] | ≤ 100 nM
8 | CC1CC(N(C)c2nc3sc(-n4cnc(-c5cn[nH]c5)cc4=O)nc3s2)CCN1C (stereo not shown) [Compound 131, 3-{5-[(1,2-dimethylpiperidin-4-yl)(methyl)amino][1,3]thiazolo[5,4-d][1,3]thiazol-2-yl}-6-(1H-pyrazol-4-yl)pyrimidin-4(3H)-one] | 100 to 500 nM
9 | Cc1nccn1-c1cnc(-c2nc3sc(N(C)[C@H]4C[C@]5(C)CC[C@](C)(C4)N5)nc3s2)cn1 [Compound 67, N-[(1R,3s,5S)-1,5-dimethyl-8-azabicyclo[3.2.1]octan-3-yl]-N-methyl-5-[5-(2-methyl-1H-imidazol-1-yl)pyrazin-2-yl][1,3]thiazolo[5,4-d][1,3]thiazol-2-amine] | ≤ 100 nM
10 | CN(c1nc2sc(-c3ncc(-c4cn[nH]c4)cc3O)nc2s1)C1CCNCC1 [Compound 47, 2-{5-[methyl(piperidin-4-yl)amino][1,3]thiazolo[5,4-d][1,3]thiazol-2-yl}-5-(1H-pyrazol-4-yl)pyridin-3-ol] | ≤ 100 nM
11 | CN(c1nc2sc(-c3cnc(-c4cn[nH]c4)cn3)nc2s1)[C@H]1C[C@]2(C)CC[C@](C)(C1)N2C [Compound 114, N-methyl-5-[5-(1H-pyrazol-4-yl)pyrazin-2-yl]-N-[(1R,3s,5S)-1,5,8-trimethyl-8-azabicyclo[3.2.1]octan-3-yl][1,3]thiazolo[5,4-d][1,3]thiazol-2-amine] | ≤ 100 nM
12 | CN(c1nc2sc(-c3ccc(-c4cn[nH]c4)cc3O)nc2s1)[C@H]1CCNC1 [Compound 54, 2-(5-{methyl[(3S)-pyrrolidin-3-yl]amino}[1,3]thiazolo[5,4-d][1,3]thiazol-2-yl)-5-(1H-pyrazol-4-yl)phenol] | ≤ 100 nM
13 | CN(c1nc2sc(-c3ncc(-c4cncs4)cc3O)nc2s1)C1CCNCC1 [Compound 64, 5-(thiazol-5-yl)-2-{5-[methyl(piperidin-4-yl)amino][1,3]thiazolo[5,4-d][1,3]thiazol-2-yl}pyridin-3-ol] | 100 to 500 nM
14 | CC1(C)CC(Oc2nc3sc(-c4ccc(-c5cn[nH]c5)cc4O)nc3s2)CC(C)(C)N1 [Compound 37, 5-(1H-pyrazol-4-yl)-2-{5-[(2,2,6,6-tetramethylpiperidin-4-yl)oxy][1,3]thiazolo[5,4-d][1,3]thiazol-2-yl}phenol] | ≤ 100 nM
15 | Cn1cc2cc(-c3nc4sc(C5CCNCC5)nc4s3)cc(C#N)c2n1 [Compound 15, 2-methyl-5-[5-(piperidin-4-yl)[1,3]thiazolo[5,4-d][1,3]thiazol-2-yl]-2H-indazole-7-carbonitrile] | ≤ 100 nM
16 | CC1CC(N(C)c2nc3sc(-n4ccc(-c5cn[nH]c5)cc4=O)nc3s2)CCN1C (stereo not shown) [Compound 180, 1-{5-[(1,2-dimethylpiperidin-4-yl)(methyl)amino][1,3]thiazolo[5,4-d][1,3]thiazol-2-yl}-4-(1H-pyrazol-4-yl)pyridin-2(1H)-one] | ≤ 100 nM

Row | Structure (SMILES) | IC50
17 | CC1(C)CC(Oc2nc3sc(-c4cnc(-c5cn[nH]c5)cn4)nc3s2)CC(C)(C)N1 [Compound 143, 2-[5-(1H-pyrazol-4-yl)pyrazin-2-yl]-5-[(2,2,6,6-tetramethylpiperidin-4-yl)oxy][1,3]thiazolo[5,4-d][1,3]thiazole] | ≤ 100 nM
18 | C[C@@H]1C[C@@H](N(C)c2nc3sc(-c4cnc(-c5cn[nH]c5)cn4)nc3s2)CCN1 [Compound 93, N-methyl-N-[(2R,4S)-2-methylpiperidin-4-yl]-5-[5-(1H-pyrazol-4-yl)pyrazin-2-yl][1,3]thiazolo[5,4-d][1,3]thiazol-2-amine] | ≤ 100 nM
19 | CN(c1nc2sc(-c3ncc(Br)cc3O)nc2s1)C1CCNCC1 [Compound 57, 5-bromo-2-{5-[methyl(piperidin-4-yl)amino][1,3]thiazolo[5,4-d][1,3]thiazol-2-yl}pyridin-3-ol] | 1000 to 3000 nM
20 | Oc1cc(-c2cn[nH]c2)cnc1-c1nc2sc(N3CC4(CCNCC4)C3)nc2s1 [Compound 209, 2-[5-(2,7-diazaspiro[3.5]nonan-2-yl)[1,3]thiazolo[5,4-d][1,3]thiazol-2-yl]-5-(1H-pyrazol-4-yl)pyridin-3-ol] | ≤ 100 nM
21 | C[C@@H]1C[C@@H](N(C)c2nc3sc(-c4ncc(-c5cnn(C)c5)c5cc[nH]c45)nc3s2)CCN1 [Compound 91, N-methyl-N-[(2R,4S)-2-methylpiperidin-4-yl]-5-[4-(1-methyl-1H-pyrazol-4-yl)-1H-pyrrolo[2,3-c]pyridin-7-yl][1,3]thiazolo[5,4-d][1,3]thiazol-2-amine] | ≤ 100 nM
22 | Cc1ncc(-c2cnc(-c3nc4sc(N(C)C5CCNCC5)nc4s3)c(O)c2)o1 [Compound 223, 5-(2-methyl-1,3-oxazol-5-yl)-2-{5-[methyl(piperidin-4-yl)amino][1,3]thiazolo[5,4-d][1,3]thiazol-2-yl}pyridin-3-ol] | ≤ 100 nM
23 | CN(c1nc2sc(-c3ccc(-c4cn[nH]c4)cc3O)nc2s1)C1CC(C)(C)NC(C)(C)C1 [Compound 1, 2-{5-[methyl(2,2,6,6-tetramethylpiperidin-4-yl)amino][1,3]thiazolo[5,4-d][1,3]thiazol-2-yl}-5-(1H-pyrazol-4-yl)phenol] | ≤ 100 nM
24 | CCN1CCC(N(C)c2nc3sc(-c4ccc(-c5cnn(C)c5)cc4O)nc3s2)CC1 [Compound 59, 2-{5-[(1-ethylpiperidin-4-yl)(methyl)amino][1,3]thiazolo[5,4-d][1,3]thiazol-2-yl}-5-(1-methyl-1H-pyrazol-4-yl)phenol] | ≤ 100 nM
25 | CC1CC(N(C)c2nc3sc(-c4ccc(Cl)c5cc[nH]c45)nc3s2)CCN1C (stereo not shown) [Compound 119, 5-(4-chloro-1H-indol-7-yl)-N-(1,2-dimethylpiperidin-4-yl)-N-methyl[1,3]thiazolo[5,4-d][1,3]thiazol-2-amine] | 1000 to 3000 nM
26 | CN(c1nc2sc(-c3cnc(-n4cncn4)cn3)nc2s1)[C@H]1C[C@]2(C)CC[C@](C)(C1)N2 [Compound 70, N-[(1R,3s,5S)-1,5-dimethyl-8-azabicyclo[3.2.1]octan-3-yl]-N-methyl-5-[5-(1H-1,2,4-triazol-1-yl)pyrazin-2-yl][1,3]thiazolo[5,4-d][1,3]thiazol-2-amine] | ≤ 100 nM
27 | CC1CC(N(C)c2nc3sc(-c4ncc(-c5cn[nH]c5)cn4)nc3s2)CCN1C (stereo not shown) [Compound 129, N-(1,2-dimethylpiperidin-4-yl)-N-methyl-5-[5-(1H-pyrazol-4-yl)pyrimidin-2-yl][1,3]thiazolo[5,4-d][1,3]thiazol-2-amine] | 100 to 500 nM
28 | CC(C)N1CCC(N(C)c2nc3sc(-c4ncc(-c5cn[nH]c5)c5cc[nH]c45)nc3s2)CC1 [Compound 121, N-methyl-N-[1-(propan-2-yl)piperidin-4-yl]-5-[4-(1H-pyrazol-4-yl)-1H-pyrrolo[2,3-c]pyridin-7-yl][1,3]thiazolo[5,4-d][1,3]thiazol-2-amine] | ≤ 100 nM
29 | Cn1ncc(-c2ccc(-c3nc4sc(OC5CC(C)(C)NC(C)(C)C5)nc4s3)c(O)c2)c1F [Compound 45, 5-(5-fluoro-1-methyl-1H-pyrazol-4-yl)-2-{5-[(2,2,6,6-tetramethylpiperidin-4-yl)oxy][1,3]thiazolo[5,4-d][1,3]thiazol-2-yl}phenol] | ≤ 100 nM
30 | CCN(c1nc2sc(-c3ncc(-c4cn[nH]c4)cc3O)nc2s1)C1CCNCC1 [Compound 61, 2-{5-[ethyl(piperidin-4-yl)amino][1,3]thiazolo[5,4-d][1,3]thiazol-2-yl}-5-(1H-pyrazol-4-yl)pyridin-3-ol] | ≤ 100 nM
31 | C[C@@H]1C[C@@H](N(C)c2nc3sc(-c4ncc(-c5cn[nH]c5)c5cc[nH]c45)nc3s2)CCN1 [Compound 87, N-methyl-N-[(2R,4S)-2-methylpiperidin-4-yl]-5-[4-(1H-pyrazol-4-yl)-1H-pyrrolo[2,3-c]pyridin-7-yl][1,3]thiazolo[5,4-d][1,3]thiazol-2-amine] | ≤ 100 nM
